target: T1, baculovirus-expressed human trkA cytoplasmic domain (Homo sapiens, UniProt P04629); assay: Inhibition of trkA tyrosine kinase activity (ELISA-based assay); format: biochemical; settings: 300 nM compound
T1 construct: baculovirus-expressed human trkA cytoplasmic domain; made in house; host or cells: baculovirus expression system
Description: Selected cyclic substituted fused pyrrolocarbazole and isoindolone compounds were tested for their ability to inhibit the kinase activity of baculovirus-expressed human trkA cytoplasmic domain using an ELISA-based assay as previously described (Angeles et al., Anal. Biochem. 236: 49-55, 1996). Briefly, the 96-well microtiter plate was coated with substrate solution (recombinant human phospholipase C-γ1/glutathione S-transferase fusion protein (Rotin et al., EMBO J., 11: 559-567, 1992). Inhibition studies were performed in 100 μl assay mixtures containing 50 mM Hepes, pH 7.4, 40 μM ATP, 10 mM MnCl2, 0.1% BSA, 2% DMSO, and various concentrations of inhibitor. The reaction was initiated by addition of trkA kinase and allowed to proceed for 15 minutes at 37° C. An antibody to phosphotyrosine (UBI) was then added, followed by a secondary enzyme-conjugated antibody, alkaline phosphatase-labelled goat antII-mouse IgG (Bio-Rad). The activity of the bound enzyme was measured via an amplified detection system (Gibco-BRL). Inhibition data were analyzed using the sigimoidal dose-response (variable slope) equation in GraphPad Prism.

T1 sequence (P04629 440-796 limits assumed): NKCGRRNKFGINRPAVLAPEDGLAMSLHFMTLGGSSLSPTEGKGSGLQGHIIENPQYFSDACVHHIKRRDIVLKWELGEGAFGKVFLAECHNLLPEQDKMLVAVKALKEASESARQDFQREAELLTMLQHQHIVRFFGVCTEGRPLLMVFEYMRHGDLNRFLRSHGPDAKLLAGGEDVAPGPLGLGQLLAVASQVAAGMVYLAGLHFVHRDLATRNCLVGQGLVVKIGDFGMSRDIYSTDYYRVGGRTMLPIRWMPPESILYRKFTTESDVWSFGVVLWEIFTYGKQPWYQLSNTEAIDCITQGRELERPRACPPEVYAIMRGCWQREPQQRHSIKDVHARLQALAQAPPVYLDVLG

| Structure (SMILES) | trkA kinase activity % Inh. @ 300 nM (values in parentheses) |
| --- | --- |
| CCN1CCCC(O)(C2c3ccccc3-c3c4c(c5c([nH]c6ccccc65)c32)CNC4=O)C1 (mixture of isomers) [II-16] | (38) % |
| CCOC(=O)C1C(=O)CCC1C1c2ccccc2-c2c3c(c4c([nH]c5ccccc54)c21)C(=O)NC3=O (single isomer, unassigned) [II-56] | (12) % |
| CCOCc1ccc2c(c1)c1c3c(c4c(c1n2CC1CO1)Cc1ccccc1-4)C(=O)NC3 (racemic) [II-58] | (23) % |
| CC1(C)OC2CC(O)(C3c4ccccc4-c4c5c(c6c([nH]c7ccccc76)c43)CNC5=O)OC2O1 (mixture of isomers) [II-48] | (46) % |
| C=C1COC(C)(C2c3ccccc3-c3c4c(c5c([nH]c6ccccc65)c32)CNC4=O)C1 (mixture of isomers) [II-25] | (27) % |
| CC(=O)N1CCC(O)(C2c3ccccc3-c3c4c(c5c([nH]c6ccccc65)c32)CNC4=O)CC1 (stereo not drawn) [II-24] | (34) % |
| O=C1NCc2c1c1c(c3[nH]c4ccccc4c23)C(C2CCCC2)c2ccccc2-1 (single isomer, unassigned) [II-59] | (10) % |
| O=C1NCc2c1c1c(c3[nH]c4ccccc4c23)C(C2(O)CCC2)c2ccccc2-1 (stereo not drawn) [II-18] | (45) % |
| CC1(C2c3ccccc3-c3c4c(c5c([nH]c6ccccc65)c32)CNC4=O)CCCO1 (single isomer, unassigned) [II-30b] | (32) % |

same assay, conditions: 40 μM ATP

| IC50 [µM] | Structure (SMILES) |
| --- | --- |
| 0.134 | O=C1NCc2c1c1c(c3[nH]c4ccccc4c23)C(C2(c3cccs3)CCCO2)c2ccccc2-1 (stereo not drawn) [II-09] |
| 0.113 | O=C1NCc2c1c1c(c3[nH]c4ccccc4c23)C(C2(O)CCCCC2)c2ccccc2-1 (stereo not drawn) [II-50] |
| 0.191 | CC1(C2c3ccccc3-c3c4c(c5c([nH]c6ccccc65)c32)C(=O)NC4)CCCO1 (stereo not drawn) [II-37] |
| 0.092 | O=C1NCc2c1c1c(c3c2c2ccccc2n3CC2CO2)Cc2ccccc2-1 (racemic) [II-01a] |
| 0.321 | O=C1CCC(C2c3ccccc3-c3c4c(c5c([nH]c6ccccc65)c32)CNC4=O)=NN1 (stereo not drawn) [II-49] |
| 0.138 | C=CC1(C2c3ccccc3-c3c4c(c5c([nH]c6ccccc65)c32)CNC4=O)CCCO1 (stereo not drawn) [II-28] |
| 0.139 | O=C1NCc2c1c1c(c3[nH]c4ccccc4c23)C(C2CSCC2O)c2ccccc2-1 (stereo not drawn) [II-11] |
| 0.13 | O=C1CCCC(C2c3ccccc3-c3c4c(c5c([nH]c6ccccc65)c32)CNC4=O)O1 (stereo not drawn) [II-05] |
| 0.054 | CCOC1CCC(C2c3ccccc3-c3c4c(c5c([nH]c6ccccc65)c32)CNC4=O)O1 (stereo not drawn) [II-40a] |

The remaining lines, values behind:

| Structure (SMILES) | IC50 [µM] |
| --- | --- |
| COCCOCOCC1(C2c3ccccc3-c3c4c(c5c([nH]c6ccccc65)c32)CNC4=O)CCC(=O)O1 (mixture of isomers) [II-31] | 0.173 |
| CC(=O)OCC1(C2c3ccccc3-c3c4c(c5c([nH]c6ccccc65)c32)CNC4=O)CCCO1 (stereo not drawn) [II-22] | 0.095 |
| O=C1NCc2c1c1c(c3[nH]c4ccccc4c23)C(C2OCCC2O)c2ccccc2-1 (mixture of isomers) [II-43] | 0.11 |
| CC1(C2c3ccccc3-c3c4c(c5c([nH]c6ccccc65)c32)CNC4=O)CC(=O)CO1 (stereo not drawn) [II-27] | 0.166 |
| CC1(C2c3ccccc3-c3c4c(c5c([nH]c6ccccc65)c32)CNC4=O)CCCCO1 (stereo not drawn) [II-12] | 0.241 |
| O=C1NCc2c1c1c(c3[nH]c4ccccc4c23)C(C2CCCCO2)c2ccccc2-1 (stereo not drawn) [II-13] | 0.186 |
